The supplement of paper PMC10307832

Assays:
Assay in all cases: relative viability (nuclei count vs DMSO), 5 days (fraction); higher = more cells survive
[1] = compound: CC1=CN=C(N=C1C2=CNC(=C2)C(=O)N[C@H](CO)C3=CC(=CC=C3)Cl)NC4=C(C=C(C=C4)F)Cl [VX-11e] + CCNC(=O)c1noc(-c2cc(C(C)C)c(O)cc2O)c1-c1ccc(CN2CCOCC2)cc1 [Luminespib] (partner 0.01 µM)
In short: (§1)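 Five library-drug doses in √10 steps were combined with a fixed anchor-drug dose, or a single drug was given alone, by pin tool to lung cancer cell lines in 1536-well plates the day after seeding. Nuclei were stained and counted after 5 days. Relative viability is the nuclei count in treated wells over that in vehicle wells, taken as the median of duplicate plates.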

[2] = compound: CC1=CN=C(N=C1C2=CNC(=C2)C(=O)N[C@H](CO)C3=CC(=CC=C3)Cl)NC4=C(C=C(C=C4)F)Cl [VX-11e] + CC(=O)c1c(C)c2cnc(Nc3ccc(N4CCNCC4)cn3)nc2n(C2CCCC2)c1=O [Palbociclib] (partner 0.5 µM)
In short: as §1

[3] = compound: CC1=CN=C(N=C1C2=CNC(=C2)C(=O)N[C@H](CO)C3=CC(=CC=C3)Cl)NC4=C(C=C(C=C4)F)Cl [VX-11e] + CS(=O)(=O)N1CCN(Cc2cc3nc(-c4cccc5[nH]ncc45)nc(N4CCOCC4)c3s2)CC1 [Pictilisib] (partner 1 µM)
In short: as §1

[4] = compound: CC1=CN=C(N=C1C2=CNC(=C2)C(=O)N[C@H](CO)C3=CC(=CC=C3)Cl)NC4=C(C=C(C=C4)F)Cl [VX-11e] + COc1cccc2cc(-c3nc([C@H]4CC[C@H](C(=O)O)CC4)n4ncnc(N)c34)[nH]c12 [OSI-027] (partner 0.5 µM)
In short: as §1

Cell Line	relative viability ([1]; first compound 0.04 µM)	relative viability ([1]; first compound 0.1265 µM)	relative viability ([1]; first compound 0.4 µM)	relative viability ([1]; first compound 1.265 µM)	relative viability ([1]; first compound 4 µM)	relative viability ([2]; first compound 0.04 µM)	relative viability ([2]; first compound 0.1265 µM)	relative viability ([2]; first compound 1.265 µM)	relative viability ([2]; first compound 4 µM)	relative viability ([3]; first compound 0.04 µM)	relative viability ([3]; first compound 0.1265 µM)	relative viability ([3]; first compound 1.265 µM)	relative viability ([3]; first compound 4 µM)	relative viability ([4]; first compound 0.04 µM)	relative viability ([4]; first compound 0.1265 µM)	relative viability ([4]; first compound 0.4 µM)	relative viability ([4]; first compound 1.265 µM)	relative viability ([4]; first compound 4 µM)	relative viability ([3]; first compound 0.4 µM)	relative viability ([2]; first compound 0.4 µM)
LOU-NH91	0.394	0.396	0.283	0.341	0.312	0.533	0.509	0.487	0.521	0.474	0.54	0.501	0.504	0.622	0.67	0.497	0.611	0.541	–	–
HCC-15	0.264	0.363	0.207	0.18	0.175	0.838	0.627	0.445	0.249	0.619	0.682	0.334	0.168	0.616	0.624	–	0.227	0.153	0.32	–
HCC-827	0.605	0.422	0.616	0.826	0.477	0.533	0.46	0.541	0.301	1.03	0.883	1.19	0.813	0.762	0.797	0.74	0.977	0.44	1.06	0.461
NCI-H1703	–	–	–	–	–	–	–	–	–	–	0.257	0.268	0.258	–	–	–	–	–	0.234	–
NCI-H322M	0.846	0.687	0.303	0.658	0.606	0.45	0.417	0.453	0.462	0.496	–	0.439	0.389	0.535	0.401	0.319	0.417	0.364	0.453	0.539
SK-LU-1	0.179	0.196	–	0.199	0.177	0.399	0.355	0.365	0.236	0.442	0.551	0.37	0.195	0.285	0.352	–	0.233	0.132	0.249	0.325
NCI-H2087	0.188	0.188	–	0.154	0.152	0.203	0.244	0.176	0.176	0.778	0.734	0.445	0.273	0.357	0.448	–	0.319	0.145	0.271	–
201T	1.06	1.06	1.09	1.05	0.918	0.206	0.337	0.353	0.348	0.599	0.658	0.542	0.647	0.728	0.678	0.823	0.603	0.645	0.608	0.361
NCI-H1975	0.232	0.199	0.156	0.283	0.186	0.543	0.411	0.391	0.17	0.237	0.278	0.222	0.202	0.695	0.499	0.291	0.415	0.162	0.2	0.169
NCI-H2085	0.378	0.433	0.396	0.323	0.276	0.498	0.437	0.404	0.366	0.361	0.51	0.452	0.357	0.625	0.695	0.517	0.322	0.251	0.441	0.457
BEN	–	0.241	0.475	0.376	0.264	0.46	0.401	0.47	0.431	0.465	0.533	0.392	0.468	–	0.274	0.302	0.285	0.242	0.628	0.465
SW 1573	0.233	0.206	0.23	0.384	0.133	–	0.342	0.259	0.15	0.509	0.522	0.307	0.298	0.52	0.561	0.708	0.402	0.194	0.404	0.351
NCI-H1793	0.178	0.177	–	0.275	0.15	–	0.255	0.28	0.232	–	0.329	0.273	0.232	0.247	0.194	–	0.251	0.134	–	–
RERF-LC-KJ	1.32	1.06	1.05	1.21	1.11	1.11	1.02	0.952	0.908	0.63	0.521	0.641	0.484	0.442	0.474	0.528	0.504	0.327	0.614	0.981
NCI-H1437	1.19	1.09	0.996	1.17	0.736	0.323	0.24	0.224	0.222	0.36	0.281	0.163	0.124	0.795	0.725	0.878	0.444	0.373	0.356	0.321
NCI-H2009	1.07	1.03	1.03	1.08	0.349	0.177	0.171	0.158	0.0988	0.712	0.671	0.23	0.186	0.637	0.665	0.559	0.226	0.168	0.478	0.187
NCI-H1395	0.804	0.637	0.423	0.682	0.46	0.593	0.612	0.605	0.483	0.682	0.551	0.59	0.435	0.572	0.539	0.57	0.621	0.447	0.501	–
